US20230274799A1, “SYSTEMS AND METHODS FOR PATIENT STRATIFICATION AND IDENTIFICATION OF POTENTIAL BIOMARKERS” (Berg LLC, priority 2016, published 2023)
Several values for one entry are separate records, joined by “and”; a condition that tells them apart may be missing. Equal values may be shown once.

Tests used:
Type in all cases: in vivo, human
[1] = Phase I dose-escalation trial, dose limiting toxicities of Coenzyme Q10 monotherapy (Arm 1)
From the text: The clinical trial is a multicenter, open-label, non-randomized, dose-escalation study to examine the dose limiting toxicities (DLT) of Coenzyme Q10 administered as a 144-hour continuous intravenous (IV) infusion as monotherapy (treatment Arm 1) and in combination with chemotherapy (treatment Arm 2) in patients with solid tumors. A broad range of solid tumors has been evaluated, including prostate, colon, breast, lung and pancreatic tumors, as shown in Tables 1 and 2 below. Coenzyme Q10 was administered in three consecutive 48 hour doses or two consecutive 72 hour doses, depending on the dose level. Three standard weekly chemotherapy regimens of gemcitabine, 5-fluorouracil, or docetaxel were evaluated in combination with Coenzyme Q10. Eligible patients are 18 years of age or older, afflicted with solid tumors, and relapsed/refractory to standard therapy. 85 patients have been enrolled in the trial. The monotherapy arm received Coenzyme Q10 for 6 days in continuous infusion in 28 day cycles, and the combination arms (gemcitabine, 5-fluorouracil, or docetaxel) were primed for 3 weeks with Coenzyme Q10 before initiation of standard chemotherapy, followed by weekly dosing in a 6 week cycle.
(§1) The study is a standard 3+3 dose escalation design with the dose escalated in successive cohorts of 3 to 6 patients each. Toxicity at each dose level is graded according to National Cancer Institute Common Terminology Criteria for Adverse Events (CTCAE v4.02). Safety oversight is provided by the Cohort Review Committee (CRC). If none of the 3 patients in a cohort experiences a DLT during Cycle 1, then 3 new patients may be entered at the next higher dose level following CRC review of safety and PK data from lower cohorts. The clinical trial is described in greater detail in WO2015/035094, which is incorporated by reference herein in its entirety.
DLTs were reported at 171 mg/kg in the Coenzyme Q10 monotherapy arm and at 137 mg/kg in the gemcitabine arm (maximum administered dose) and were coagulopathy-related. 3 DLTs were reported during the time period covered by Example 1. […] The event resolved in 2 days after administration of Vitamin K and fresh frozen plasma (FFP). Three additional patients were enrolled at this dose level with no additional DLTs reported. […] According to trial design, patients were being enrolled into the next lowest dose level (110 mg/kg).
Table 4. Dose limiting toxicities for Coenzyme Q10 monotherapy. The number of patients enrolled at each dose level (DL) is shown in parentheses. DL4 and DL5 were administered in two consecutive 72 hour IV infusions. All other dose levels were administered by three consecutive 48 hour IV infusions.

[2] = Phase I trial, adverse events (CTCAE v4.02)
From the text: as §1
Four grade 3 events were reported. During the time period covered by Example 1, 1503 adverse events were reported. 75 events were reported as serious. Of the serious adverse events, 27 were not related, 38 were unlikely related, 8 were possibly related, one was probably related and, one was definitely related (activated partial thromboplastin time (APTT) prolonged).
The table below contains the adverse events reported with a frequency of 4% or greater.

[3] = Pharmacokinetics of Coenzyme Q10 in plasma during and after 144-hour continuous IV infusion; set-up: Coenzyme Q10 concentration in plasma, Mean ± SD: unit not given here
Procedure: Pharmacokinetics of Coenzyme Q10 was measured in the patients at time zero and at several time points during and after the 144-hour continuous intravenous (IV) infusion with Coenzyme Q10.

[4] = Grade 2, 3*, adverse events with frequency of 4% or greater
[5] = time period covered by Example 1

In the case of `COC1=C(OC)C(=O)C(C/C=C(\C)CC/C=C(\C)CC/C=C(\C)CC/C=C(\C)CC/C=C(\C)CC/C=C(\C)CC/C=C(\C)CC/C=C(\C)CC/C=C(\C)CCC=C(C)C)=C(C)C1=O` [Coenzyme Q10], the “Time to resolution of DLT event (grade 3 PTT abnormality)” value ([1]; Mono Dose Level 5 (171 mg/kg), after administration of Vitamin K and fresh frozen plasma) is reported as 2 days, the “Dose Limiting Toxicity” value ([1]; monotherapy DL1 - 66 mg/kg (9 enrolled), three consecutive 48 hour IV infusions, cell wraps r7-r9: Grade 3 Elevated Liver Function Test*, *readjudicated to unlikely related to protocol therapy) is reported as “Grade 3 Elevated” and the “Dose Limiting Toxicity” value ([1]; monotherapy DL2 - 88 mg/kg (4 enrolled), three consecutive 48 hour IV infusions) is reported as “None”. For the same compound, the “Dose Limiting Toxicity” value ([1]; monotherapy DL3 - 110 mg/kg (5 enrolled), three consecutive 48 hour IV infusions) was “None”, the “Dose Limiting Toxicity” value ([1]; monotherapy DL4 - 137 mg/kg (4 enrolled), two consecutive 72 hour IV infusions) was “None” and the “Dose Limiting Toxicity” value ([1]; monotherapy DL5 - 171 mg/kg (8 enrolled), two consecutive 72 hour IV infusions, cell wraps r20-r21: 1 DLT: Grade 3 PTT elevation) was “grade 3 partial thromboplastin time (PTT) abnormality and 1 DLT: Grade 3”. The “Number of DLTs reported” value ([1]; whole trial (mono and combination arms), time period covered by Example 1) was 3, the “Anemia, Number of Occurrences” value ([2]; Grade 2, 3) was 38 and the “Anemia, Percentage of Occurrences” value ([2]; Grade 2, 3) was “(15%)”. The “Elevated AST, Number of Occurrences” value ([2]; Grade 2, 3) was 14, the “Elevated AST, Percentage of Occurrences” value ([2]; Grade 2, 3) was “(6%)” and the “Fatigue, Number of Occurrences” value ([2]; Grade 2, 3) was 11. For the same compound, the “Fatigue, Percentage of Occurrences” value ([2]; Grade 2, 3) was “(4%)”, the “Elevated PT/PTT/INR, Number of Occurrences” value [2, 4] was 67 and the “Elevated PT/PTT/INR, Percentage of Occurrences” value [2, 4] was “(26%)”. For the same compound, the “Thrombocytopenia, Number of Occurrences” value ([2]; Grade 2, 3, 4*) was 34, the “Thrombocytopenia, Percentage of Occurrences” value ([2]; Grade 2, 3, 4*) was “(13%)” and the “Hypertriglyceridemia, Number of Occurrences” value ([2]; Grade 2, 4*) was 15. The “Hypertriglyceridemia, Percentage of Occurrences” value ([2]; Grade 2, 4*) was “(6%)”, the “Number of grade 3 PT/PTT/INR prolongation events reported” value ([2]; in vivo) was “Four” and the “Most common related adverse events” value ([2]; mitigated after Vitamin K administration) was “grade 1-2 prothrombin time (PT)/partial thromboplastin time(PTT)/International Normalized Ratio (INR) prolongation”. The “Serious adverse events not related” value ([2]; of 75 serious events) was 27, the “Serious adverse events possibly related” value ([2]; of 75 serious events) was 8 and the “Serious adverse events probably related” value ([2]; of 75 serious events) was “one”. The “Serious adverse events unlikely related” value ([2]; of 75 serious events) was 38, the “Serious adverse events definitely related” value ([2]; of 75 serious events, activated partial thromboplastin time (APTT) prolonged) was “one” and the “Number of adverse events reported” value [2, 5] was 1503. For the same compound, the “Number of events reported as serious” value [2, 5] was 75, the “Coenzyme Q10 concentration in plasma, Mean ± SD” value ([3]; 220 mg/kg/week, Arm 2, n = 9 (footnote c), time 96 hr) was 348 ± 225^c and the “Coenzyme Q10 concentration in plasma, Mean ± SD” value ([3]; 220 mg/kg/week, Arm 2, n = 9 (footnote c), time 148 hr) was 250 ± 251^c. The “Coenzyme Q10 concentration in plasma, Mean ± SD” value ([3]; 220 mg/kg/week, Arm 2, n = 11 (footnote b), time 4 hr) was 158 ± 57^b, the “Coenzyme Q10 concentration in plasma, Mean ± SD” value ([3]; 220 mg/kg/week, Arm 2, n = 11 (footnote b), time 140 hr) was 378 ± 244^b and the “Coenzyme Q10 concentration in plasma, Mean ± SD” value ([3]; 220 mg/kg/week, Arm 2, n = 11 (footnote b), time 146 hr) was 282 ± 207^b. For the same compound, the “Coenzyme Q10 concentration in plasma, Mean ± SD” value ([3]; 220 mg/kg/week, Arm 2, n = 12 (footnote a), time 1 hr) was 150 ± 54^a, the “Coenzyme Q10 concentration in plasma, Mean ± SD” value ([3]; 220 mg/kg/week, Arm 2, n = 12 (footnote a), time 73 hr) was 227 ± 212^a and the “Coenzyme Q10 concentration in plasma, Mean ± SD” value ([3]; 220 mg/kg/week, Arm 2, n = 12 (footnote a), time 74 hr) was 226 ± 193^a. For the same compound, the “Coenzyme Q10 concentration in plasma, Mean ± SD” value ([3]; 220 mg/kg/week, Arm 2, n = 12 (footnote a), time 143.5 hr) was 363 ± 221^a, the “Coenzyme Q10 concentration in plasma, Mean ± SD” value ([3]; 220 mg/kg/week, Arm 2, n = 13, time 0 hr) was 0 and the “Coenzyme Q10 concentration in plasma, Mean ± SD” value ([3]; 220 mg/kg/week, Arm 2, n = 13, time 2 hr) was 163 ± 66^. For the same compound, the “Coenzyme Q10 concentration in plasma, Mean ± SD” value ([3]; 220 mg/kg/week, Arm 2, n = 13, time 24 hr) was 251 ± 155, the “Coenzyme Q10 concentration in plasma, Mean ± SD” value ([3]; 220 mg/kg/week, Arm 2, n = 13, time 71.5 hr) was 255 ± 199 and the “Coenzyme Q10 concentration in plasma, Mean ± SD” value ([3]; 220 mg/kg/week, Arm 2, n = 13, time 142 hr) was 358 ± 214. For the same compound, the “Coenzyme Q10 concentration in plasma, Mean ± SD” value ([3]; 274 mg/kg/week, Arm 1, n = 3 (so in the source), time 0 hr) was 0 and the “Coenzyme Q10 concentration in plasma, Mean ± SD” value ([3]; 274 mg/kg/week, Arm 1, n = 3 (so in the source), time 1 hr) was 173 ± 36.
